Source: patent US20160138077A1, “MONITORING AND ASSESSING DEACETYLASE ENZYME ACTIVITY” (THE GENERAL HOSPITAL CORPORATION, priority 2013, published 2016)

Tests used:
Format in all cases: biochemical
Pepsin = biological target: T1, Pepsin (Sus scrofa, UniProt P00791); assay: LCMS assay of protease enzymatic action on HP-1 (HDAC buffer at pH 4); settings: −SAHA, 5 μM HP-1, 12 hours at 37° C.
T1 construct: purchased Sigma-Aldrich
Protocol: (§1) The enzymatic cleavage of HP-1 was analyzed by performing LCMS assays with sirtuin 1 and 3 (Cayman Chemicals) and the proteases chymotrypsin (Sigma-Aldrich), cathepsin (EMD Millipore), and pepsin* (Sigma-Aldrich). Solutions containing (i) vehicle with DMSO in HDAC buffer, (ii) 5 μM HP-1 in HDAC buffer, and (iii) 5 μM HP-1 and the enzyme in HDAC buffer were incubated for 12 hours at 37° C. Following incubation, a 20 μL aliquot of supernatant from each sample was analyzed by LCMS. Deacetylation of HP-1 was investigated by screening for the DHP-1 (M+H)^+ ion following positive electrospray ionization. All assay samples were analyzed in triplicate. […]
(§2) HP-1 was not altered by sirtuins 1 and 3 or the proteases chymotrypsin, cathepsin and pepsin, as determined by LCMS. […] For Cathepsin B, the cleavage of the enzyme substrate, z-RR-pNA (Santa Cruz Biotechnology, Dallas, Tex.) was monitored using a Wallac EnVision 2103 Multilabel fluorescence plate reader (PerkinElmer, Waltham, Mass.) with a 405 nm excitation filter, a 406 nm emission filter, and a gain of 150. The cleavage of the pepsin substrate, Ac-Phe-Tyr-OH (Chem-Impex Inc.), was monitored by LCMS at pH 4. […]

Sirtuin 1 = biological target: T2, Sirtuin 1 (Homo sapiens, UniProt Q96EB6); assay: LCMS assay of sirtuin enzymatic action on HP-1; settings: Sirtuin 1, −SAHA; 5 μM HP-1, 12 hours at 37° C.
T2 construct: purchased Cayman Chemicals
T2 sequence (Q96EB6 1-747): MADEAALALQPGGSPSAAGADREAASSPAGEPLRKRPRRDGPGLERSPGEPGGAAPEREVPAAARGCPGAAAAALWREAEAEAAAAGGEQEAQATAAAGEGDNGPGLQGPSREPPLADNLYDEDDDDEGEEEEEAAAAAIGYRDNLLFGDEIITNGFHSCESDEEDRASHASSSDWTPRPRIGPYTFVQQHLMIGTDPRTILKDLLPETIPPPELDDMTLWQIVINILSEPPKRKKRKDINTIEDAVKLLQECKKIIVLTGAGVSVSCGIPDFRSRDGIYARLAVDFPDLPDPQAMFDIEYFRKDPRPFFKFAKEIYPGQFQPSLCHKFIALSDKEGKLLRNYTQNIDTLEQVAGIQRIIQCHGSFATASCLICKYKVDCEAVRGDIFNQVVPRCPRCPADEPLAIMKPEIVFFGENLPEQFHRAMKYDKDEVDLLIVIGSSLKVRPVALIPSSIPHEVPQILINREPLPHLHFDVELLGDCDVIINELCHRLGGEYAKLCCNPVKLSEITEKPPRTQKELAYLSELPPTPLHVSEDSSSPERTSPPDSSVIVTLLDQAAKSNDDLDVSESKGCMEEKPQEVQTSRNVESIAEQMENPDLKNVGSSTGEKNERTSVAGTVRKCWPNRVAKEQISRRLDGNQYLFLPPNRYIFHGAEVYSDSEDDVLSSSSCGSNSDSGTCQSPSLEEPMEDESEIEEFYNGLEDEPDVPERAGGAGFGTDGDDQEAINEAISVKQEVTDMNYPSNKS
Protocol: as §1, §2

Sirtuin 3 = biological target: T3, Sirtuin 3 (Homo sapiens, UniProt Q9NTG7); assay: LCMS assay of sirtuin enzymatic action on HP-1; settings: Sirtuin 3, −SAHA; 5 μM HP-1, 12 hours at 37° C.
T3 construct: purchased Cayman Chemicals
T3 sequence (Q9NTG7 1-399): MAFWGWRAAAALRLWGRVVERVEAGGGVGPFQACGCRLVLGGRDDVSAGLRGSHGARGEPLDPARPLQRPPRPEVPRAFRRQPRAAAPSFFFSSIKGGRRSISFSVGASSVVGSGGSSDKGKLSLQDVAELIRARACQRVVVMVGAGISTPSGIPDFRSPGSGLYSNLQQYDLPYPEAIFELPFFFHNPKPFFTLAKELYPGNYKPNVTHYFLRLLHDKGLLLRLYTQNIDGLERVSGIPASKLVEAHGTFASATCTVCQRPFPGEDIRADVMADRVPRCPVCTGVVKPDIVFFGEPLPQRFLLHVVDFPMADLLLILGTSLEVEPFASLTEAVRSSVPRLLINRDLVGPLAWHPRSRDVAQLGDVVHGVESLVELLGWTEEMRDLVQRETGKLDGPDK
Protocol: as §1, §2

Measured: % HP-1 to DHP-1

T1 sequence (P00791 60-385): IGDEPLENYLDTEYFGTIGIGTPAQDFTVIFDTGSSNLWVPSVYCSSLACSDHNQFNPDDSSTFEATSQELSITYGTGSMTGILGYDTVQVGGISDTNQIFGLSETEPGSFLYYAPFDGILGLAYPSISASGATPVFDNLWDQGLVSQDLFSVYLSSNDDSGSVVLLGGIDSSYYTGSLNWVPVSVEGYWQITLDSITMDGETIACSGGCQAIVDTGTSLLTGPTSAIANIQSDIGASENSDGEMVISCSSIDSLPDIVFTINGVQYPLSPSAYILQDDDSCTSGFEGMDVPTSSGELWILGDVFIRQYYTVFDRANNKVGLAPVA

CC(=O)NC=CCCCCNC(=O)CCCCCNc1ccc([N+](=O)[O-])c2nonc12 [HP-1]
0%: all assays above
